Reference: patent publication US9725449B2, “Tricyclic compounds as anticancer agents” (BRISTOL-MYERS SQUIBB COMPANY, priority 2015, dated 2017)

biological target: BRD4 (Homo sapiens, UniProt O60885); experiment: Time resolved fluorescence resonance energy transfer (TR-FRET) binding assay, bromodomain BRD4; settings: one of the FRET assays described; read-out: FRET BRD4 IC50

Row | Compound | IC50 [nM]
1 | Cc1nnn(C)c1-c1cnc2c3ccc(N(C)C)nc3n([C@H](c3ccccc3)C3CCOCC3)c2c1 [Example 181, 5-(Dimethyl-1H-1,2,3-triazol-5-yl)-N,N-dimethyl-8-[(S)-oxan-4-yl(phenyl)methyl]-3,8,10-triazatricyclo[7.4.0.0^2,^7]trideca-1(9),2(7),3,5,10,12-hexaen-11-amine] | < 1
2 | Cc1cccnc1C(C1CCOCC1)n1c2cc(-c3c(C)nnn3C)ncc2c2ncc(C(C)(C)O)cc21 (single isomer, unassigned) [Example 373] | < 1500
3 | Cc1noc(C)c1-c1cnc2c3cnc(C(C)(C)O)cc3n([C@H](c3ncccc3F)C3CCOCC3)c2c1 [Example 338] | < 10
4 | [2H]C([2H])([2H])c1nnn(C)c1-c1cnc2c3cnc(Cl)cc3n([C@H](c3ncccc3F)C3CCOCC3)c2c1 (stereo in doubt) [Example 314, 11-Chloro-8-[(3-fluoropyridin-2-yl)(oxan-4-yl)methyl]-5-[4-(^2H3)methyl-1-methyl-1H-1,2,3-triazol-5-yl]-3,8,12-triazatricyclo[7.4.0.0^2,^7]trideca-1(9),2(7),3,5,10,12-hexaene] | < 10
5 | 2-{5-[4-(^2H3)Methyl-1-methyl-1H-1,2,3-triazol-5-yl]-8-[1-(pyridin-2-yl)butyl]-3,8,12-triazatricyclo[7.4.0.0^2,^7]trideca-1(13),2(7),3,5,9,11-hexaen-11-yl}propan-2-ol [Example 357] | < 10
6 | [2H]C([2H])([2H])c1onc(C)c1-c1cnc2c3c(OC)ncc(S(=O)(=O)C([2H])([2H])[2H])c3n(C(c3ncccc3F)C3CCOCC3)c2c1 (stereo not drawn) [Example 66, 8-[(3-Fluoropyridin-2-yl)(oxan-4-yl)methyl]-10-(^2H3)methanesulfonyl-13-methoxy-5-[5-(^2H3)methyl-3-methyl-1,2-oxazol-4-yl]-3,8,12-triazatricyclo[7.4.0.0^2,^7]trideca-1(13),2(7),3,5,9,11-hexaene] | < 10
7 | [2H]C([2H])([2H])c1nnn(C)c1-c1cnc2c3c(N(C)C(C)C)ncc(S(C)(=O)=O)c3n([C@H](c3ccccc3)C3CCOCC3)c2c1 [Example 116, 10-Methanesulfonyl-N-methyl-5-[4-(^2H3)methyl-1-methyl-1H-1,2,3-triazol-5-yl]-8-[(S)-oxan-4-yl(phenyl)methyl]-N-(propan-2-yl)-3,8,12-triazatricyclo[7.4.0.0^2,^7]trideca-1(13),2(7),3,5,9,11-hexaen-13-amine] | < 1
8 | [2H]C([2H])([2H])c1nnn(C)c1-c1cnc2c3ccc(N4CC(C)S(=O)(=O)C(C)C4)nc3n([C@H](c3ccccc3)C3CCOCC3)c2c1 (stereo partly drawn) [Example 193, 2,6-Dimethyl-4-{5-[4-(^2H3)methyl-1-methyl-1H-1,2,3-triazol-5-yl]-8-[(S)-oxan-4-yl(phenyl)methyl]-3,8,10-triazatricyclo[7.4.0.0^2,^7]trideca-1(9),2(7),3,5,10,12-hexaen-11-yl}-1λ^6,4-thiomorpholine-1,1-dione] | < 1
9 | COc1ccc2c3ncc(-c4c(C)nnn4C)cc3n(C(c3ccccc3F)C3CCOCC3)c2n1 (racemic) [Example 28, 5-(Dimethyl-1H-1,2,3-triazol-5-yl)-8-[(2-fluorophenyl)(oxan-4-yl)methyl]-11-methoxy-3,8,10-triazatricyclo[7.4.0.0^2,^7]trideca-1(13),2(7),3,5,9,11-hexaene] | < 10
10 | Cc1nnn(C)c1-c1cnc2c3cc(S(C)(=O)=O)ncc3n([C@H](c3ccccc3F)C3CCOCC3)c2c1 [Example 32, 5-(Dimethyl-1H-1,2,3-triazol-5-yl)-8-[(S)-(2-fluorophenyl)(oxan-4-yl)methyl]-12-methanesulfonyl-3,8,11-triazatricyclo[7.4.0.0^2,^7]trideca-1(13),2(7),3,5,9,11-hexaene] | < 10
11 | Cc1nnn(C)c1-c1cnc2c3ccc(Cl)nc3n([C@@H](c3ccccc3)C3CCOCC3)c2c1 [Example 15, 11-Chloro-5-(dimethyl-1H-1,2,3-triazol-5-yl)-8-[(R)-oxan-4-yl(phenyl)methyl]-3,8,10-triazatricyclo[7.4.0.0^2,^7]trideca-1(9),2(7),3,5,10,12-hexaene] | < 1500
12 | CCc1nnn(C)c1-c1cnc2c3cnc(C(C)(C)O)cc3n([C@H](c3ccccc3)C3CCOCC3)c2c1 [Example 340, 2-[5-(4-Ethyl-1-methyl-1H-1,2,3-triazol-5-yl)-8-[(S)-oxan-4-yl(phenyl)methyl]-3,8,12-triazatricyclo[7.4.0.0^2,^7]trideca-1(9),2(7),3,5,10,12-hexaen-11-yl]propan-2-ol] | < 10
13 | COc1ncc(S(C)(=O)=O)c2c1c1ncc(-c3c(C)nnn3C)cc1n2C(c1ccccc1)C1CCC(F)(F)CC1 (single isomer, unassigned) [Example 91, 8-[(4,4-Difluorocyclohexyl)(phenyl)methyl]-5-(dimethyl-1H-1,2,3-triazol-5-yl)-10-methanesulfonyl-13-methoxy-3,8,12-triazatricyclo[7.4.0.0^2,^7]trideca-1(13),2(7),3,5,9,11-hexaene] | < 1500
14 | Cc1noc(C)c1-c1cc2c(cn1)c1ncc(C(C)(C)O)cc1n2[C@H](c1ccccc1)C1CCOCC1 [Example 369] | < 10
15 | [2H]C([2H])([2H])c1nnn(C)c1-c1cnc2c3ccc(N4CCN(C([2H])([2H])[2H])CC4)nc3n([C@H](c3ccccc3)C3CCOCC3)c2c1 [Example 249, 5-[4-(^2H3)Methyl-1-methyl-1H-1,2,3-triazol-5-yl]-11-[4-(^2H3)methylpiperazin-1-yl]-8-[(S)-oxan-4-yl(phenyl)methyl]-3,8,10-triazatricyclo[7.4.0.0^2,^7]trideca-1(13),2(7),3,5,9,11-hexaene] | < 10
16 | COc1ncc(C(C)(C)O)c2c1c1ncc(-c3c(C)nnn3C)cc1n2[C@H](c1ccccc1)C1CCOCC1 [Example 142, 2-[5-(Dimethyl-1H-1,2,3-triazol-5-yl)-13-methoxy-8-[(S)-oxan-4-yl(phenyl)methyl]-3,8,12-triazatricyclo[7.4.0.0^2,^7]trideca-1(9),2,4,6,10,12-hexaen-10-yl]propan-2-ol] | < 10
17 | [2H]C([2H])([2H])c1nnn(C)c1-c1cnc2c3c(OCC4CC4(F)F)nccc3n([C@H](c3ccccc3)C3CCOCC3)c2c1 (stereo partly drawn) [Example 279, 13-[(2,2-Difluorocyclopropyl)methoxy]-5-[4-(^2H3)methyl-1-methyl-1H-1,2,3-triazol-5-yl]-8-[(S)-oxan-4-yl(phenyl)methyl]-3,8,12-triazatricyclo[7.4.0.0^2,^7]trideca-1(9),2(7),3,5,10,12-hexaene] | < 1
18 | COc1ncc(Cl)c2c1c1ncc(-c3c(C)nnn3C)cc1n2[C@H](c1ccccc1)C1CCOCC1 [Example 40, 10-Chloro-5-(dimethyl-1H-1,2,3-triazol-5-yl)-13-methoxy-8-[(S)-oxan-4-yl(phenyl)methyl]-3,8,12-triazatricyclo[7.4.0.0^2,^7]trideca-1(13),2(7),3,5,9,11-hexaene] | < 1
19 | [2H]C([2H])([2H])c1nnn(C)c1-c1cnc2c3c(OC)ncc(S(C)(=O)=O)c3n([C@H](c3ccccc3F)C3CCOCC3)c2c1 [Example 51, 8-[(S)-(2-Fluorophenyl)(oxan-4-yl)methyl]-10-methanesulfonyl-13-methoxy-5-[4-(^2H3)methyl-1-methyl-1H-1,2,3-triazol-5-yl]-3,8,12-triazatricyclo[7.4.0.0^2,^7]trideca-1(13),2(7),3,5,9,11-hexaene] | < 1
20 | CCCC(c1ncccc1F)n1c2cc(-c3c(C)nnn3C)ncc2c2ncc(C(C)(C)O)cc21 (single isomer, unassigned) [Example 370] | < 10
21 | Cc1noc(C)c1-c1cnc2c3cnc(Cl)cc3n(C(c3ccc(Cl)cn3)C3CCOCC3)c2c1 (single isomer, unassigned) [Example 327] | < 1500
22 | [2H]C([2H])([2H])c1onc(C)c1-c1cnc2c3cnc(C(C)(C)O)cc3n([C@H](c3ccc(F)cc3)C3CCOCC3)c2c1 [Example 225, 2-{8-[(S)-(4-Fluorophenyl)(oxan-4-yl)methyl]-5-[5-(^2H3)methyl-3-methyl-1,2-oxazol-4-yl]-3,8,12-triazatricyclo[7.4.0.0^2,^7]trideca-1(13),2(7),3,5,9,11-hexaen-11-yl}propan-2-ol] | < 1
23 | [2H]C([2H])([2H])c1nnn(C)c1-c1cnc2c3c(OC)ncc(S(C)(=O)=O)c3n(C(c3c(F)cc(F)cc3F)C3CCOCC3)c2c1 (single isomer, unassigned) [Example 84, 10-Methanesulfonyl-13-methoxy-5-[4-(^2H3)methyl-1-methyl-1H-1,2,3-triazol-5-yl]-8-[oxan-4-yl(2,4,6-trifluorophenyl)methyl]-3,8,12-triazatricyclo[7.4.0.0^2,^7]trideca-1(13),2(7),3,5,9,11-hexaene] | < 1500
24 | Cc1nnn(C)c1-c1cnc2c3cc(C(C)(C)O)cnc3n([C@H](c3ccccc3)C3CCOCC3)c2c1 [Example 350, 2-[5-(Dimethyl-1H-1,2,3-triazol-5-yl)-8-[(S)-oxan-4-yl(phenyl)methyl]-3,8,10-triazatricyclo[7.4.0.0^2,^7]trideca-1(13),2(7),3,5,9,11-hexaen-12-yl]propan-2-ol] | < 10
